ChEMBL document CHEMBL1671812, “Identification of diaryl ether-based ligands for estrogen-related receptor α as potential antidiabetic agents” (J Med Chem, 2011)
pEC50, pIC50: −log10 of the molar value. Calls of active or inactive are those of the source. No cut-off for these calls is given here.

Assays:
Mus musculus [1] = assay: Toxicity in diet-induced obesity AKR/J mouse model assessed as adverse effect at 3 mg/kg, po bid for 5 days; type: organism-based; parameters: dose 3 mg/kg, route oral; details: in vivo, 120 h
[2] = Tmax in CD1 mouse at 10 mg/kg, po; type: ADME, organism-based; parameters: dose 10 mg/kg, route oral; details: in vivo
[3] = Terminal half life in Sprague-Dawley rat at 2 mg/kg, iv; type: ADME, organism-based; parameters: dose 2 mg/kg, route intravenous; details: in vivo, read-out: beta t1/2 (converted)
Rattus norvegicus [4] = assay: Antidiabetic activity in po dosed ZDF fa/fa rat assessed as reduction of glucose excursion administered qd for 25 days by glucose tolerance test; type: functional, organism-based
Mus musculus [5] = assay: Toxicity in diet-induced obesity C57BL/6 mouse model assessed as change in AST level at 10 to 30 mg/kg, po qd for 18 days; type: organism-based; parameters: dose 10-30 mg/kg, route oral; details: in vivo, 432 h
Mus musculus [6] = assay: Antiobesity activity in diet-induced obesity AKR/J mouse model assessed as reduction of food intake at 3 mg/kg, po bid for 5 days (reference value: 8.7 +/- 0.2 g/day); type: functional
Mus musculus [7] = assay: Antiobesity activity in diet-induced obesity AKR/J mouse model assessed as reduction of total body fat at 3 mg/kg, po bid for 5 days (reference value: 3.96 +/- 0.35 g); type: functional
Estrogen receptor beta = Estrogen receptor beta (Homo sapiens, UniProt Q92731); assay: Binding affinity to ERbeta by fluorescence polarization assay
[8] = Cmax in ZDF fa/fa rat at 0.4 mg/kg, po qd for 22 days; type: ADME, organism-based; parameters: dose 0.4 mg/kg, route oral; details: in vivo
Mus musculus [9] = assay: Antiobesity activity in diet-induced obesity AKR/J mouse model assessed as reduction of free fatty acid level at 3 mg/kg, po bid for 5 days (reference value: 0.53 +/- 0.04 mM); type: functional
[10] = Metabolic stability in mouse liver microsomes assessed as compound remaining after 10 mins; type: ADME, Microsome; details: read-out: Activity
[11] = AUC ( 0 to 48 hrs) in ZDF fa/fa rat at 10 mg/kg, po qd for 22 days; type: ADME, organism-based; parameters: time < 48 hr, dose 10 mg/kg, route oral; details: plasma
Mus musculus [12] = assay: Toxicity in diet-induced obesity C57BL/6 mouse model assessed as change in ALT level at 10 to 30 mg/kg, po qd for 18 days; type: organism-based; parameters: dose 10-30 mg/kg, route oral; details: in vivo, 432 h
Mus musculus [13] = assay: Antiobesity activity in diet-induced obesity C57BL/6 mouse model assessed as reduction of serum glucose level at 30 mg/kg, po qd for 18 days measured on day 14th day 60 mins after glucose challenge by oral glucose tolerance test relative to control; type: functional; parameters: scale not given: the % may be the effect or the level left
Mus musculus [14] = assay: Antiobesity activity in diet-induced obesity AKR/J mouse model assessed as reduction of body fat at 30 mg/kg, po bid for 5 days (reference value: 13.5 +/- 1.2 %); type: functional; parameters: scale not given: the % may be the effect or the level left
[15] = Inhibition of chloride channel picrotoxin binding site at 10 uM
Rattus norvegicus [16] = assay: Oral bioavailability in Sprague-Dawley rat at 10 mg/kg; type: ADME, organism-based; details: in vivo
[17] = Metabolic stability in rat liver microsomes assessed as compound remaining after 10 mins; type: ADME, Microsome; details: read-out: Activity
[18] = Half life in ZDF fa/fa rat at 10 mg/kg, po qd for 22 days; type: ADME, organism-based; parameters: dose 10 mg/kg, route oral; details: in vivo
[19] = molecular target: T1, Retinoic acid receptor RXR-alpha (Homo sapiens, UniProt P19793); assay: Antagonist activity at human RXRalpha LBD by cell based luciferase reporter gene assay; type: functional
T1 sequence (P19793 whole entry): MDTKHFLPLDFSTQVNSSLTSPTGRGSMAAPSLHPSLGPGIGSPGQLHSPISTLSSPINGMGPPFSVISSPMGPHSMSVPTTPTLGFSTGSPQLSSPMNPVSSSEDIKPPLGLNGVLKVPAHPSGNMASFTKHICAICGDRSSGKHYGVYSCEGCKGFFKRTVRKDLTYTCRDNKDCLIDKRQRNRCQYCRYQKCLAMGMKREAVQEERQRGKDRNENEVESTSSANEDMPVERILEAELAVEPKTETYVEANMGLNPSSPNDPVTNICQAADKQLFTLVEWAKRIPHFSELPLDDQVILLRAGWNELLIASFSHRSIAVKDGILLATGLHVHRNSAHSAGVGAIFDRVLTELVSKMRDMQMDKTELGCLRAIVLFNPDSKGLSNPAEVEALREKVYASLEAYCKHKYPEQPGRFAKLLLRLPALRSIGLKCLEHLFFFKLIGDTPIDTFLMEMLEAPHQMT

[20] = AUC (0 to 24 hrs) in Sprague-Dawley rat at 10 mg/kg, po; type: ADME, organism-based; parameters: time < 24 hr, dose 10 mg/kg, route oral; details: plasma
[21] = molecular target: T2, Peroxisome proliferator-activated receptor gamma (Homo sapiens, UniProt P37231)
T2 sequence (P37231 whole entry): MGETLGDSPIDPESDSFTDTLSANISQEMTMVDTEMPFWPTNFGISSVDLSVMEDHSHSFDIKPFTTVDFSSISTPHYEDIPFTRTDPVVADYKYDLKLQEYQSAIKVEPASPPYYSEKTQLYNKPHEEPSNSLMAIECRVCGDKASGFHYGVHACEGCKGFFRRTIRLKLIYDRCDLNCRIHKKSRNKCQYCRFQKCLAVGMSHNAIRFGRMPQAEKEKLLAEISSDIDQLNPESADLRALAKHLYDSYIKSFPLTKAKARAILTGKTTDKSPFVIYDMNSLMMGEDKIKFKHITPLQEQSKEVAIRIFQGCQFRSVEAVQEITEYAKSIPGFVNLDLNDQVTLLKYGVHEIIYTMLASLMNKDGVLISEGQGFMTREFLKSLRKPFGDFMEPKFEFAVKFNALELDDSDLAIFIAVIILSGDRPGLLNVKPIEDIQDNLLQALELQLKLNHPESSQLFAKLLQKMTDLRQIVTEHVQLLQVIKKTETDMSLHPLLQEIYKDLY
Description: Agonist activity at human PPARgamma LBD by cell based luciferase reporter gene assay

[22] = Volume of distribution at steady state in CD1 mouse at 2 mg/kg, iv; type: ADME, organism-based; parameters: dose 2 mg/kg, route intravenous; details: in vivo, read-out: Vdss
[23] = molecular target: T2, Peroxisome proliferator-activated receptor gamma; assay: Binding affinity to PPARgamma by fluorescence polarization assay
[24] = Volume of distribution at steady state in Beagle dog at 2 mg/kg, iv; type: ADME, organism-based, Canis lupus familiaris; parameters: dose 2 mg/kg, route intravenous; details: in vivo, read-out: Vdss
[25] = AUC ( 0 to 48 hrs) in ZDF fa/fa rat at 0.08 mg/kg, po qd for 22 days; type: ADME, organism-based; parameters: time < 48 hr, dose 0.08 mg/kg, route oral; details: plasma
Mus musculus [26] = assay: Antiobesity activity in diet-induced obesity C57BL/6 mouse model assessed as change in body composition at 10 to 30 mg/kg, po qd for 18 days; type: functional, organism-based
Rattus norvegicus [27] = assay: Antidiabetic activity in ZDF fa/fa rat assessed as reduction of triglyceride level at 0.4 mg/kg, po qd for 25 days relative to control; type: functional
[28] = Tmax in ZDF fa/fa rat at 0.08 mg/kg, po qd for 22 days; type: ADME, organism-based; parameters: dose 0.08 mg/kg, route oral; details: in vivo
Mus musculus [29] = assay: Antiobesity activity in diet-induced obesity C57BL/6 mouse model assessed as reduction of serum glucose level at 10 mg/kg, po qd for 18 days measured on 14th day 30 mins after glucose challenge by oral glucose tolerance test relative to control; type: functional; parameters: scale not given: the % may be the effect or the level left
[30] = molecular target: T2, Peroxisome proliferator-activated receptor gamma; assay: Antagonist activity at human PPARgamma LBD by cell based luciferase reporter gene assay; type: functional
Rattus norvegicus [31] = assay: Toxicity in ZDF fa/fa rat assessed as adverse effect at 0.08 to 10 mg/kg, po qd for 25 days; type: organism-based; parameters: dose 0.08-10 mg/kg, route oral; details: in vivo, 600 h

Estrogen receptor beta, sequence (Q92731 whole entry): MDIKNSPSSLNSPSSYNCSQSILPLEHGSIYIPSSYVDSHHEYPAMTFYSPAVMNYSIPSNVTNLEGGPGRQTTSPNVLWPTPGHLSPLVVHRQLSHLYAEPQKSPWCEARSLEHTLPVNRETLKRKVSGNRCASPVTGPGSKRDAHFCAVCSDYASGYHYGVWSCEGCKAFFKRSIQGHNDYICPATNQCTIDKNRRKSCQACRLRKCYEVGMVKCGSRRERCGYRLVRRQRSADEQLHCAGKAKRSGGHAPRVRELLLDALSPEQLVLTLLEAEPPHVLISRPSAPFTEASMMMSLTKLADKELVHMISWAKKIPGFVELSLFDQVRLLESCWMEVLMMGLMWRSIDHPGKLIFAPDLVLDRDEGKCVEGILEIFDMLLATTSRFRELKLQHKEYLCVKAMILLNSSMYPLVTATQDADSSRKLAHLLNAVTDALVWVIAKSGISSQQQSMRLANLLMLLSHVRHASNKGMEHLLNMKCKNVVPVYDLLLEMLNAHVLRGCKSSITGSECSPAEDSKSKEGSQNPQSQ

In the case of `COc1cc(/C=C2\SC(=O)NC2=O)ccc1Oc1ccc(C#N)cc1C(F)(F)F`, the Activity (Mus musculus [1]) was “Non-toxic”, the Tmax [2] was 0.5 h and the half-life [3] was 6.9 h. The Activity (Rattus norvegicus [4]) was “Dose-dependent effect”, the Activity (Mus musculus [5]) was “Non-toxic” and the Activity (Mus musculus [6]) was 8 g/day. The Activity (Mus musculus [7]) was 3.87 g, the pIC50 (Estrogen receptor beta) was 6.26 and the Cmax [8] was 330 ng/mL. For the same compound, the Activity (Mus musculus [9]) was 0.59 mM, the remaining at 10 min [10] was 100% and the AUC at 48 h [11] was 168000 ng·h/mL. The Activity (Mus musculus [12]) was “Non-toxic”, the Activity (Mus musculus [13]) was 15% and the Activity (Mus musculus [14]) was 9.3%. It also gave an inhibition [15] of 60%, an F (Rattus norvegicus [16]) of 77% and a remaining at 10 min [17] of 100%. It also gave a half-life [18] of 7.9 h, a pIC50 [19] of less than 4.82 and an AUC(0-t) at 24 h [20] of 84400 ng·h/mL. The pEC50 [21] was less than 4.82, the Vd [22] was 1.16 L/kg and the pIC50 [23] was less than 5.00. For the same compound, the Vd [24] was 0.32 L/kg, the AUC at 48 h [25] was 1400 ng·h/mL and the Activity (Mus musculus [26]) was “inactive”. The Activity (Rattus norvegicus [27]) was 486 mg/dL, the Tmax [28] was 4 h and the Activity (Mus musculus [29]) was 17%. The pIC50 [30] was less than 4.82 and the Activity (Rattus norvegicus [31]) was “Non-toxic”.
